Results taken from patent US10260105B2, “MiR-320e and colorectal cancer” (BAYLOR RESEARCH INSTITUTE, priority 2014, dated 2019).

System: stage II and III CRC
Experiment: Kaplan-Meier DFS and OS estimates in validation cohort patients treated with 5-FU-based adjuvant chemotherapy
Assay type: in vivo
Conditions: 167 stage II and III CRC patients, 5-FU-based adjuvant chemotherapy for 6 months after tumor resection
Method: Validation Patient Cohort. This group included a total of 237 CRC patients (65 stage II, 102 stage III, and 70 stage IV) that were enrolled as part of a clinical trial conducted at the Hospital Clinic, Barcelona, Spain. Patients in this clinical trial were enrolled between 1996 and 2008, and the median follow-up was 4.7 years in patients that were alive at last follow-up, and 3.5 years for all patients. All stage II and III patients were treated with 5-FU-based adjuvant chemotherapy following resection of the primary tumor; all stage IV patients were treated with 5-FU and oxaliplatin (Takahashi, et al., 2012). Normal colonic mucosa (n=20) from healthy individuals was obtained from the Pathology Department of the Hospital Clinic of Barcelona and included as controls. This study was approved by the Institutional Review Board (IRB) of Hospital Clinic, Barcelona, Spain, and a written informed consent was obtained from all patients.
Distributions in the validation cohort are presented as mean (SD) or median (range) depending on level of skewness in the data for continuous variables, or as counts (percentage) for categorical variables. Nonparametric tests (rank sum, Kruskal Wallace) were used to compare expression between groups. Kaplan Meier and Cox regression models were used to assess association with time to event outcomes that included overall survival (OS), defined as time from diagnosis to death, and disease free survival (DFS) defined as time from diagnosis to disease recurrence or death. Due to the scale of miR320e expression, hazard ratios are presented as the change in risk of a person at the 75th percentile relative to a person at the 25th percentile of miR-320e distribution. This can be interpreted as the increase in risk due to a patient moving from the middle of the bottom half of the miR-320e distribution to the middle of the top half of the distribution. Bootstrapping was used to calculate an optimism corrected c-index, analogous to the area under the receiver operating characteristic curve (Steyerberg, et al., 2011). A c-index of 0.5 denotes random predictions, whereas a c index of 1 denotes perfect predictions.
Higher expression miR320e is associated with poor outcome in patients with stage II and III CRC. To determine the potential prognostic significance of miR-320e expression, Cox regression models were utilized with the miRNA expression levels considered as continuous variables. There were 167 stage II and III CRC patients in the validation cohort with sufficient data for these analyses. All of these patients were treated with 5-FU-based adjuvant chemotherapy for 6 months subsequent to tumor resection. Of these patients, 65 out of 167 (38.9%) were stage II and the remainder were stage III. […]

In the case of O=c1[nH]cc(F)c(=O)[nH]1 [5-FU, 5-fluorouracil], the “2-year Kaplan-Meier DFS estimate” value (2 years) is reported as 78.32%, the “2-year OS estimate” value (2 years) is reported as 91.57% and the “5-year Kaplan-Meier DFS estimate” value (5 years) is reported as 63.96%. The “5-year OS estimate” value (5 years) was 78.52%.
